Tested on: 276233-004-R-J1-PDC KRAS spheroids with HUVEC/MSC, viability
Assay: Anticancer human tumor 276233-004-R-J1-PDC patient-derived colon adenocarcinoma cell line growth inhibition [KRAS2]
Settings: for viability, T/C: stronger effect = lower value
Procedure, shortened: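 KRAS-mutant tumor cells were grown as spheroids with HUVEC endothelial cells and human MSCs as stroma. Targeted agents were tested alone and with KRAS pathway inhibitors. Doses started at or near clinical Cmax, or 10 microM, descending half-log.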

[1] = curve of first compound, second compound 0.1 µM
[2] = curve of first compound, second compound 0.316 µM
[3] = curve of first compound, second compound 1 µM
[4] = curve of first compound, second compound 3.16 µM
[5] = curve of first compound, second compound 10 µM
[6] = second compound 0.1 µM, first compound 0.0316 µM
[7] = second compound 0.1 µM, first compound 0.1 µM
[8] = second compound 0.1 µM, first compound 0.316 µM
[9] = second compound 0.1 µM, first compound 1 µM
[10] = second compound 0.1 µM, first compound 3.16 µM
[11] = second compound 0.1 µM, first compound 10 µM
[12] = second compound 0.316 µM, first compound 0.0316 µM
[13] = second compound 0.316 µM, first compound 0.1 µM
[14] = second compound 0.316 µM, first compound 0.316 µM
[15] = second compound 0.316 µM, first compound 1 µM
[16] = second compound 0.316 µM, first compound 3.16 µM
[17] = second compound 0.316 µM, first compound 10 µM
[18] = second compound 1 µM, first compound 0.0316 µM
[19] = second compound 1 µM, first compound 0.1 µM
[20] = second compound 1 µM, first compound 0.316 µM
[21] = second compound 1 µM, first compound 1 µM
[22] = second compound 1 µM, first compound 3.16 µM
[23] = second compound 1 µM, first compound 10 µM
[24] = second compound 3.16 µM, first compound 0.0316 µM
[25] = second compound 3.16 µM, first compound 0.1 µM
[26] = second compound 3.16 µM, first compound 0.316 µM
[27] = second compound 3.16 µM, first compound 1 µM
[28] = second compound 3.16 µM, first compound 3.16 µM
[29] = second compound 3.16 µM, first compound 10 µM
[30] = second compound 10 µM, first compound 0.0316 µM
[31] = second compound 10 µM, first compound 0.1 µM
[32] = second compound 10 µM, first compound 0.316 µM
[33] = second compound 10 µM, first compound 1 µM
[34] = second compound 10 µM, first compound 3.16 µM
[35] = second compound 10 µM, first compound 10 µM
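Also: cells exposed to agents for seven days before viability read.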
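For viability, T/C in this document: 100% = DMSO vehicle control wells and lower values mean fewer viable cells.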

Work on `COc1cc2nccc(Oc3ccc(NC(=O)C4(C(=O)Nc5ccc(F)cc5)CC4)cc3)c2cc1OC` + CC1OCC2(CCN(c3cnc(Sc4ccnc(N)c4Cl)c(N)n3)CC2)C1N yielded an IC50 [1] of over 10 µM, an IC50 [2] of over 10 µM and an IC50 [3] of over 10 µM. For the same molecule, the IC50 [4] was over 10 µM, the IC50 [5] was 3.58 µM and the viability, T/C [6] was 78.9%. It also gave a viability, T/C [7] of 77.1%, a viability, T/C [8] of 85.4% and a viability, T/C [9] of 75.1%. The viability, T/C [10] was 80%, the viability, T/C [11] was 77.6% and the viability, T/C [12] was 73.5%. It also gave a viability, T/C [13] of 64.7%, a viability, T/C [14] of 69.5% and a viability, T/C [15] of 72.7%. It also gave a viability, T/C [16] of 81.9%, a viability, T/C [17] of 59.6% and a viability, T/C [18] of 65%. The viability, T/C [19] was 67.4%, the viability, T/C [20] was 60.7% and the viability, T/C [21] was 75.7%. The viability, T/C [22] was 70.9%, the viability, T/C [23] was 52.7% and the viability, T/C [24] was 55.5%. For the same molecule, the viability, T/C [25] was 67.9%, the viability, T/C [26] was 55.1% and the viability, T/C [27] was 61.7%. For the same molecule, the viability, T/C [28] was 72.2%, the viability, T/C [29] was 44% and the viability, T/C [30] was 71.8%. The viability, T/C [31] was 59.7%, the viability, T/C [32] was 56.7% and the viability, T/C [33] was 53%. The viability, T/C [34] was 58.2% and the viability, T/C [35] was 42.6%.
In the case of `CC(=O)OC12COC1CC(O)C1(C)C(=O)C(O)C3=C(C)C(OC(=O)C(O)C(NC(=O)OC(C)(C)C)c4ccccc4)CC(O)(C(OC(=O)c4ccccc4)C21)C3(C)C` (stereo not given), the viability, T/C (compound 0.01 µM) is reported as 90.3% [middle of 5 runs], the viability, T/C (compound 0.316 µM) is reported as 88.6% [middle of 5 runs] and the viability, T/C (compound 1 µM) is reported as 94.5% [middle of 5 runs]. For the same molecule, the viability, T/C (compound 3.16 µM) was 92.1% [middle of 5 runs] and the IC50 (curve of compound) was over 3.16 µM.
Work on `CC(C)NCC(C(=O)N1CCN(c2ncnc3c2C(C)CC3O)CC1)c1ccc(Cl)cc1` (stereo not given) + CC1OCC2(CCN(c3cnc(Sc4ccnc(N)c4Cl)c(N)n3)CC2)C1N yielded an IC50 [1] of over 10 µM, an IC50 [2] of 2.08 µM and an IC50 [3] of 0.697 µM. It also gave an IC50 [4] of 0.343 µM, an IC50 [5] of 0.183 µM and a viability, T/C [6] of 77.2%. For the same molecule, the viability, T/C [7] was 75.2%, the viability, T/C [8] was 56.3% and the viability, T/C [9] was 65.9%. For the same molecule, the viability, T/C [10] was 56.1%, the viability, T/C [11] was 51.5% and the viability, T/C [12] was 90.4%. For the same molecule, the viability, T/C [13] was 69%, the viability, T/C [14] was 55.8% and the viability, T/C [15] was 52.8%. It also gave a viability, T/C [16] of 49.5%, a viability, T/C [17] of 47.5% and a viability, T/C [18] of 68%. It also gave a viability, T/C [19] of 59.5%, a viability, T/C [20] of 48.4% and a viability, T/C [21] of 52.8%. For the same molecule, the viability, T/C [22] was 48.1%, the viability, T/C [23] was 40.2% and the viability, T/C [24] was 63.3%. It also gave a viability, T/C [25] of 58.4%, a viability, T/C [26] of 52.1% and a viability, T/C [27] of 41.4%. It also gave a viability, T/C [28] of 37.1%, a viability, T/C [29] of 31.5% and a viability, T/C [30] of 59.1%. The viability, T/C [31] was 57%, the viability, T/C [32] was 38.1% and the viability, T/C [33] was 41.7%. For the same molecule, the viability, T/C [34] was 36.1% and the viability, T/C [35] was 19.1%.
With `CC1COCCN1c1cc(-c2ccnn2C)c2ccnc(-c3ccn[nH]3)c2n1` (stereo not given) + CC1OCC2(CCN(c3cnc(Sc4ccnc(N)c4Cl)c(N)n3)CC2)C1N the IC50 [1] was over 3.16 µM, the IC50 [2] was 2.18 µM and the IC50 [3] was 2.83 µM. For the same molecule, the IC50 [4] was 0.632 µM, the IC50 [5] was 0.737 µM and the viability, T/C (second compound 0.1 µM, first compound 0.01 µM) was 107%. It also gave a viability, T/C [6] of 96%, a viability, T/C [7] of 78.3% and a viability, T/C [8] of 86.2%. The viability, T/C [9] was 60.9%, the viability, T/C [10] was 56.1% and the viability, T/C (second compound 0.316 µM, first compound 0.01 µM) was 76.9%. For the same molecule, the viability, T/C [12] was 106%, the viability, T/C [13] was 84.8% and the viability, T/C [14] was 74.6%. For the same molecule, the viability, T/C [15] was 61.1%, the viability, T/C [16] was 45% and the viability, T/C (second compound 1 µM, first compound 0.01 µM) was 87.7%. It also gave a viability, T/C [18] of 73.2%, a viability, T/C [19] of 67.9% and a viability, T/C [20] of 68.5%. For the same molecule, the viability, T/C [21] was 57.4%, the viability, T/C [22] was 47.5% and the viability, T/C (second compound 3.16 µM, first compound 0.01 µM) was 64.1%. For the same molecule, the viability, T/C [24] was 86.2%, the viability, T/C [25] was 64.8% and the viability, T/C [26] was 57%. The viability, T/C [27] was 46.8%, the viability, T/C [28] was 40.7% and the viability, T/C (second compound 10 µM, first compound 0.01 µM) was 61.1%. It also gave a viability, T/C [30] of 66.4%, a viability, T/C [31] of 56.6% and a viability, T/C [32] of 49.2%. For the same molecule, the viability, T/C [33] was 52.9% and the viability, T/C [34] was 41.1%.
